ChEMBL document CHEMBL1201862, “PubChem BioAssay data set” (2004)
Activity calls are given as the source filed them.

Tests used:
[1] = HGIII-sPLA2 enzyme inhibition potency – biochemical, QFRET, IC50, dose response (AID 743457);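 note: green fluorescence rise as the enzyme cleaves BODIPY PC-A2 in liposomes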
[2] = target: T1, Low molecular weight phosphotyrosine protein phosphatase (Homo sapiens, UniProt P24666); type: functional; details: read-out: IC50_Mean
T1 sequence (P24666 whole entry): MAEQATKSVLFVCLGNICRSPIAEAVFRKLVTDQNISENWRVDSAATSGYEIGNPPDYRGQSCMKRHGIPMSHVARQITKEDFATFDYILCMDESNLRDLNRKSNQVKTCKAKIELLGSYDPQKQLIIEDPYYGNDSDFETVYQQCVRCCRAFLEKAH

[3] = target: T1, Low molecular weight phosphotyrosine protein phosphatase; type: functional; details: read-out: IC50_Mean; remark: listed apart in the source
[4] = system: Vero; experiment: viability loss in Vero cells – cell-based, plate reader, cherry-pick samples, cytotoxicity control, dose response (AID 687020); type: functional; details: Chlorocebus sabaeus
[5] = target: Histone-lysine N-methyltransferase NSD2 (Homo sapiens, UniProt O96028); type: biochemical
[6] = target: Fructose-bisphosphate aldolase (Mycobacterium tuberculosis, UniProt P9WQA3); experiment: Fluorescence-based biochemical high throughput dose response assay for inhibitors of the fructose-bisphosphate aldolase (FBA) of M. tuberculosis.; type: functional
[7] = system: Vero; experiment: viability of Vero cells under compound – cytotoxicity control for flavivirus capping enzyme inhibitors (AID 588742); type: functional; details: Chlorocebus sabaeus
[8] = target: T2, Protein RecA (Mycobacterium tuberculosis, UniProt P9WHJ3); experiment: Fluorescence Cell-Free Homogeneous Dose Retest to Identify Inhibitors of RecA-Intein Splicing Activity. [Related pubchem assays (depositor defined):AID2097, AID2223, AID489010, AID492950]; type: functional
T2 sequence (P9WHJ3 whole entry): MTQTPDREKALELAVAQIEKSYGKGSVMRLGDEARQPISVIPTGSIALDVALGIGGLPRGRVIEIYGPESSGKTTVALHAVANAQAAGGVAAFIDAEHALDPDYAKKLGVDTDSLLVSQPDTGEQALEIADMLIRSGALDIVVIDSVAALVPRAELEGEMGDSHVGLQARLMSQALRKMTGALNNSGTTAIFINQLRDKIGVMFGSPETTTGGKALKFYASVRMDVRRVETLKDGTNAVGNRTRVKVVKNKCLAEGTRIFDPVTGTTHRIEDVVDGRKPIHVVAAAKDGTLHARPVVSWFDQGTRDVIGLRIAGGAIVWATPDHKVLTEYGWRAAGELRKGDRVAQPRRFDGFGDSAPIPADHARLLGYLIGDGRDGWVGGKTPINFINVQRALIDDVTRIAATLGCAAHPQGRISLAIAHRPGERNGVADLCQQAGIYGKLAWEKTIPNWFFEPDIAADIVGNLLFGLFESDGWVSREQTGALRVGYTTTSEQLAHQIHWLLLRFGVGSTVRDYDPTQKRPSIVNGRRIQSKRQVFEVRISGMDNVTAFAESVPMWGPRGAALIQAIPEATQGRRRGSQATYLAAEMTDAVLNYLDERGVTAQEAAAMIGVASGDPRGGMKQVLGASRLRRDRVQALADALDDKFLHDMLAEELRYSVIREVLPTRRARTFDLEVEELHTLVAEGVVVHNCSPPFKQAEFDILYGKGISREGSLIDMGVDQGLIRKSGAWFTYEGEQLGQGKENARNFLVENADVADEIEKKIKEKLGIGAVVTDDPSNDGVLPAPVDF

[9] = target: T3, Replicative DNA helicase DnaB (Mycobacterium tuberculosis, UniProt P9WMR3); experiment: DnaB intein splicing inhibitors, dose response, biochemical, cell-free fluorescence (AID 449749); type: functional
T3 sequence (P9WMR3 whole entry): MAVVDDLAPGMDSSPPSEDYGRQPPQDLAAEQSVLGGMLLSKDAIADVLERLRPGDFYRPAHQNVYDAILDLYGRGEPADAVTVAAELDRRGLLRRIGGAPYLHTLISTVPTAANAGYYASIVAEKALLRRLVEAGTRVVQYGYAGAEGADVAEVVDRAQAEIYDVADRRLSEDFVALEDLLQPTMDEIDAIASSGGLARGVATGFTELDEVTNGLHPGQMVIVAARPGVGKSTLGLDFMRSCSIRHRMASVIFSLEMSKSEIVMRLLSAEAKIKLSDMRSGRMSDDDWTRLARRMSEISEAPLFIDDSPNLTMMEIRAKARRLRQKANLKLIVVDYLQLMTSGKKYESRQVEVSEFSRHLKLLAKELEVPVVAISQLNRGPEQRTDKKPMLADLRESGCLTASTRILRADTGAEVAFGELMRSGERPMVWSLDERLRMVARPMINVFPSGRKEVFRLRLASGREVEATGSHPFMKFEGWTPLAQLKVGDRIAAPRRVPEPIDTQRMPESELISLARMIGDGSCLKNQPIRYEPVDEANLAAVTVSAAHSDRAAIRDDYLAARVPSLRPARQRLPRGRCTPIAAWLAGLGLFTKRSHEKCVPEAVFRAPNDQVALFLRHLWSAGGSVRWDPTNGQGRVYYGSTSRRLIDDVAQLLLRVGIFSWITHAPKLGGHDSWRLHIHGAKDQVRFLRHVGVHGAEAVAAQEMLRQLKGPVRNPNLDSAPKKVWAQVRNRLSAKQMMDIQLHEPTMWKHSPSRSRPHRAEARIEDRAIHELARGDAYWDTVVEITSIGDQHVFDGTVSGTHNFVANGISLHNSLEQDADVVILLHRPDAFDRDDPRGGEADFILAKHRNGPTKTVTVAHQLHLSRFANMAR

[10] = target: T4, Mannose-6-phosphate isomerase (Homo sapiens, UniProt P34949); experiment: MPI inhibition at elevated mannose 6-phosphate – biochemical, fluorescence intensity, high mannose 6-phosphate, primary screen (AID 1220)
T4 sequence (P34949 whole entry): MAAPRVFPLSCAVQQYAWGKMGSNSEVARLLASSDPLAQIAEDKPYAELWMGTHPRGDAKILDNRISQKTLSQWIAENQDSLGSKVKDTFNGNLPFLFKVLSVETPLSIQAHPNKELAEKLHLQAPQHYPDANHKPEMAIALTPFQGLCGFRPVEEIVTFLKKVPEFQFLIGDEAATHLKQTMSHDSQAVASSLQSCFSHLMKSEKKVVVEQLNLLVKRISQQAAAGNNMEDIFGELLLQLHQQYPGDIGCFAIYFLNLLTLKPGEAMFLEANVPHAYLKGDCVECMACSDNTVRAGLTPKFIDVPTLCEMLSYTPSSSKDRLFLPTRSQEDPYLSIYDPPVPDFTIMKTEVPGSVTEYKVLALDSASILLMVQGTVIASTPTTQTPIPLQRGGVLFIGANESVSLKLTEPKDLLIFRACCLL

[11] = target: Beta-galactosidase (Escherichia coli, UniProt Q8VNN2); experiment: Dose response counterscreen for EBI2 assay utilizing the enzyme, b-galactosidase.; type: functional
[12] = Fluorescence-based cell-based high throughput dose response assay for inhibitors of the interaction of nucleotide-binding oligomerization domain containing 2 (NOD2) and the receptor-interacting serine-threonine kinase 2 (RIPK2).; type: functional, Homo sapiens
[13] = target: T5, Probable nicotinate-nucleotide adenylyltransferase (Staphylococcus aureus (strain N315), UniProt P65502); type: functional, Staphylococcus aureus subsp. aureus N315; details: read-out: IC50_Mean;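 for IC50 Mean: confirmatory dose-response retesting of NadD inhibitor hits first found in an ultra-high-throughput screen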
[14] = target: T5, Probable nicotinate-nucleotide adenylyltransferase; type: functional, Staphylococcus aureus subsp. aureus N315
[15] = activation of miR-122 Renilla sensor silencing – cell-based, Huh7 psiCHECK-miR122, Renilla luciferase, cherry-picked, dose response (AID 651956); type: functional;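 note: huh7 hepatoma cells stably carrying a psiCHECK-2 miR-122 sensor plasmid; renilla luciferase signal reporting endogenous miR-122 activity after 48 h compound exposure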
[16] = TNFa-induced NF-kB reporter signal decrease – HEK293 LMP1 reporter cells, dry powder, set 2, selectivity assay for EBV LMP1 NF-kB inhibitor project, dose response (AID 624369); type: functional
[17] = inhibitors of EBV LMP1 NF-kappaB signaling – cell-based, luciferase reporter, luminescence, dry powder, set 2, dose response (AID 624376); type: functional
[18] = LMP1-induced NF-kB luciferase signal inhibition – cell-based, EBV LMP1, dry powder, set 2, dose response (AID 624361); type: functional
[19] = target: T6, Rac GTPase-activating protein 1 (Homo sapiens, UniProt Q9H0H5); experiment: blockers of MgcRacGAP-driven Rac1 GTP hydrolysis – biochemical, ADP Hunter fluorescence, primary and confirmatory, confirmation (AID 624330); type: functional
T6 sequence (Q9H0H5 whole entry): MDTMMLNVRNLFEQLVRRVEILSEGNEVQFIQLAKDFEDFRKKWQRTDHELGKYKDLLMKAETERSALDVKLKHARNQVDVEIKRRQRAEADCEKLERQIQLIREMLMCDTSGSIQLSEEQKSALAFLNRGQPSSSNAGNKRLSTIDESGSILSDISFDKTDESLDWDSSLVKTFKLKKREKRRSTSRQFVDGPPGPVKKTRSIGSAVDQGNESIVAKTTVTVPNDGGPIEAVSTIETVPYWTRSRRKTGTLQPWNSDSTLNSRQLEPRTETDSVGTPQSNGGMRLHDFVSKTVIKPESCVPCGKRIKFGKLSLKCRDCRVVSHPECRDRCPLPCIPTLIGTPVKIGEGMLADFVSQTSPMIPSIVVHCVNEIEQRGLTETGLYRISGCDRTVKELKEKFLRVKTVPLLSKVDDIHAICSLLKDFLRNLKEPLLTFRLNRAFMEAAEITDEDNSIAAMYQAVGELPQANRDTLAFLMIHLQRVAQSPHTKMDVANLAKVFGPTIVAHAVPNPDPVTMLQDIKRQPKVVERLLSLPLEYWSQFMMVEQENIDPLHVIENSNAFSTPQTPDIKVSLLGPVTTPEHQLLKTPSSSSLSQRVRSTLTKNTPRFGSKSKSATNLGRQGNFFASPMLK

[20] = viability loss in HeLa cells – cytotoxicity control for MgcRacGAP inhibitor project, dose response (AID 624300); type: functional
[21] = cells; type: functional, cell-based
[22] = target: T7, Nuclear receptor subfamily 0 group B member 1 (Homo sapiens, UniProt P51843); type: functional, cell-based;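 note: HEK293T cells transfected with SF-1 and DAX-1 plus StAR promoter luciferase reporter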
T7 sequence (P51843 whole entry): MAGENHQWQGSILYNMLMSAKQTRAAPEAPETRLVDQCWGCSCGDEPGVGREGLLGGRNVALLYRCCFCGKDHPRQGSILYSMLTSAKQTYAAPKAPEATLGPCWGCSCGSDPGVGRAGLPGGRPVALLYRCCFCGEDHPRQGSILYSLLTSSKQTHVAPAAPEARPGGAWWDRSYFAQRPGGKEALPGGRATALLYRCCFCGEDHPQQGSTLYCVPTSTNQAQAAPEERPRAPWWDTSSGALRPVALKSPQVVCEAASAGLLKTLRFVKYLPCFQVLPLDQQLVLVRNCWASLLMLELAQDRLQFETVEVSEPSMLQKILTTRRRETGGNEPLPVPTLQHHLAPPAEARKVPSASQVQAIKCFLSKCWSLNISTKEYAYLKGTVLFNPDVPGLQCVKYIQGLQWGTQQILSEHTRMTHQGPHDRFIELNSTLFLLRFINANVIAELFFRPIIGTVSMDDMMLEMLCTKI

[23] = inhibition of ARNT PAS-B/TACC3 complex formation – biochemical, AlphaScreen, cherry-picked samples, confirmation (AID 651703); type: functional, Homo sapiens;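 note: His-tagged ARNT PAS-B domain paired with GST-TACC3 E629A dimer coactivator fragment; potency of inhibitors that break up the complex and lower AlphaScreen signal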
[24] = A549 cell cytotoxicity, dose response, cytotoxicity control, plate reader, cherry-pick, antagonist series (AID 743412); type: functional, cell-based
[25] = blockers of bursicon-stimulated LGR2 cAMP reporter – cell-based, HEK293, CRE-luciferase reporter, cherry pick, set 2, dose response (AID 743343); type: functional;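 note: transfected cells were stimulated with diluted bursicon conditioned medium after compound addition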
[26] = blockade of melanocortin 4 receptor signaling – cell-based, plate reader, cherry pick, counter-screen for LGR2 antagonist project, dose response (AID 743444); type: functional;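 note: transfected HEK 293 cells stimulated with alpha-MSH peptide; potency of inhibitors of the alpha-MSH evoked signal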

Fructose-bisphosphate aldolase, sequence (P9WQA3 whole entry): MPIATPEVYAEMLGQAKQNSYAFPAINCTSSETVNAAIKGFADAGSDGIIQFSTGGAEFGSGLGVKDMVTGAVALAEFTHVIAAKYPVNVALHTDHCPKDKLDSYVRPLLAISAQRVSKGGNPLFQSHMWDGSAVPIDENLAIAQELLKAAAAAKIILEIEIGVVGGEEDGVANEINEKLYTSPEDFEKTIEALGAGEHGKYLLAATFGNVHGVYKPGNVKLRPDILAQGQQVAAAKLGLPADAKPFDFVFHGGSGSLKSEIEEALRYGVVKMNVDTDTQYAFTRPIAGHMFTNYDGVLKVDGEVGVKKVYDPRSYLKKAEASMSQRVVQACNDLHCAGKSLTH
T5 sequence (P65502 whole entry): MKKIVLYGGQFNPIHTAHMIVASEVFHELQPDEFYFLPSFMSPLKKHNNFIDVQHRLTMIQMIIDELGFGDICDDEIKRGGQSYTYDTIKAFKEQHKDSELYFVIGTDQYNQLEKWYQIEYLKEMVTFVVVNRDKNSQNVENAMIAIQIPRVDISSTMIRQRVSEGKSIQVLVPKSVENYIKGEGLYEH
Beta-galactosidase, sequence (Q8VNN2 whole entry, the tested form may be a part): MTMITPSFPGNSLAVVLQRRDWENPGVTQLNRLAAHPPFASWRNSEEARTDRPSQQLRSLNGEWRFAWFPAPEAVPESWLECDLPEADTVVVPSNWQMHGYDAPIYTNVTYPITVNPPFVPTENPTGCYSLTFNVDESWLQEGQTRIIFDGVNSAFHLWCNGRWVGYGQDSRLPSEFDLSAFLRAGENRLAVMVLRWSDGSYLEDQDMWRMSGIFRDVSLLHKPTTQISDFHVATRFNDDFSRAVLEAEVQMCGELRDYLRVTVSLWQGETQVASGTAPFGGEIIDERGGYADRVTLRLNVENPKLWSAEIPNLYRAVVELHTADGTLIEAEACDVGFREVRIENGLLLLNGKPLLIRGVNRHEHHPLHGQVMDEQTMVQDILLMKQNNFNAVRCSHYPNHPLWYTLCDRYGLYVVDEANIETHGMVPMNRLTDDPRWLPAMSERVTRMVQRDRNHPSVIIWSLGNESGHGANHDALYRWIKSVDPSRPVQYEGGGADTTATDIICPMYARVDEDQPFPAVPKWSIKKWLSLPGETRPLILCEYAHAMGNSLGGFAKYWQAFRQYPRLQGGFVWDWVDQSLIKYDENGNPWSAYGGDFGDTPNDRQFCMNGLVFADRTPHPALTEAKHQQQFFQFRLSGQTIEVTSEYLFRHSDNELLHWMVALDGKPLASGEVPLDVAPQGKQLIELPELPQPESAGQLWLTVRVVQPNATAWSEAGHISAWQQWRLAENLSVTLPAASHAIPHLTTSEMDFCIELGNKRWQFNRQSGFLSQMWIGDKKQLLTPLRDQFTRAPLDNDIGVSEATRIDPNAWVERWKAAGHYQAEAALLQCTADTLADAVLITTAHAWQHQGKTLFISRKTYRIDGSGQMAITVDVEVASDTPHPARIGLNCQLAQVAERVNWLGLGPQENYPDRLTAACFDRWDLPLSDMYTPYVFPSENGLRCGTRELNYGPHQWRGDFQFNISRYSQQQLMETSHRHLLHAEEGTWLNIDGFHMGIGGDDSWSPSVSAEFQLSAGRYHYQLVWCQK
Histone-lysine N-methyltransferase NSD2, sequence (O96028 whole entry): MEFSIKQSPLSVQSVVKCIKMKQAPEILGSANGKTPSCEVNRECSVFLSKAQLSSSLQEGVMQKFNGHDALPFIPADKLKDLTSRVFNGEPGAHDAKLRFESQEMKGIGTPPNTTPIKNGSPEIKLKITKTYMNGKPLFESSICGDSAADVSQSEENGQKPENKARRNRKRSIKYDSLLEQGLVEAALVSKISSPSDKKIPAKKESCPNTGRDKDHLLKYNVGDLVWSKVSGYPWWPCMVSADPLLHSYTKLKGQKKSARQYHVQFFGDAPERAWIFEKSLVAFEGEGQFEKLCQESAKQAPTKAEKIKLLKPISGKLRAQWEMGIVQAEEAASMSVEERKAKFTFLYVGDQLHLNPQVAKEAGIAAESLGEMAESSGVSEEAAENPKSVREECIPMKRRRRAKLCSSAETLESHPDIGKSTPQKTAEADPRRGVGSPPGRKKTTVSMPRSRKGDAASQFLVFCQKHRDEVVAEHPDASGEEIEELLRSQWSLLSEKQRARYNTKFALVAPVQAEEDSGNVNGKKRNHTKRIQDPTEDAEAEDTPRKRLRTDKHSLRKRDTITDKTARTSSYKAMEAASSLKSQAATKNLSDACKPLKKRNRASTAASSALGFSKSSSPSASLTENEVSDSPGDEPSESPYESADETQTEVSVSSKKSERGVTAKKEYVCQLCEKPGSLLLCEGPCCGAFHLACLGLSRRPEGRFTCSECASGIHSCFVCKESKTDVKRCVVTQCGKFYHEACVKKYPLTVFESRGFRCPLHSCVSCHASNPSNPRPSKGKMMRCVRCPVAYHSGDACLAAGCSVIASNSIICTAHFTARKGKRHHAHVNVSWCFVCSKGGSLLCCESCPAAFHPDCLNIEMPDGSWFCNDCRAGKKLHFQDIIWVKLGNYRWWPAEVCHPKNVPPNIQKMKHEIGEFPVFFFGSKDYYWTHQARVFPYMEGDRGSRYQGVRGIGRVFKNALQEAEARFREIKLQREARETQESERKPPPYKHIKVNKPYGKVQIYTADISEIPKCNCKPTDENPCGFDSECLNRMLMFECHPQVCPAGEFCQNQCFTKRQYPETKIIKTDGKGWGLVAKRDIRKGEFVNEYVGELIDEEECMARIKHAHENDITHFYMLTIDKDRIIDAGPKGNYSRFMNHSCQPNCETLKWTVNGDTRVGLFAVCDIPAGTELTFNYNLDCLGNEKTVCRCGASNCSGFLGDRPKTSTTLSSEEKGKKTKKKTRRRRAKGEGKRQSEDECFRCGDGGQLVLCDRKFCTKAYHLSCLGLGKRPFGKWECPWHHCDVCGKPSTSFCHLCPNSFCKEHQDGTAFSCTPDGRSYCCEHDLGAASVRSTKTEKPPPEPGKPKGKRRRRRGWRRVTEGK

Sc1nnc(-c2ccc(Cl)cc2)n1-c1ccc2c(c1)OCCO2
IC50 [1]: > 122 µM (inactive)

O=C(CSc1nc(-c2ccccc2)nc2ccc(F)cc12)Nc1ccc(C(=O)O)cc1
IC50 [2]: 25.9 µM (inactive)
IC50 [3]: 57.3 µM (inactive)

COc1c(Cl)cc(Br)c(OC)c1C(=O)NC(=O)Nc1nc(C)cc(C)n1
AC50 [4]: 29.2 µM (active)

COCC(C)OC(=O)/C(C#N)=C\c1coc2ccc(C)cc2c1=O (stereo unspecified)
AC50 [5]: 11.9 µM (active)

COc1cc2c(cc1OC)C(C1C(=O)CC(C)CC1=O)N(C(=O)CCl)CC2 (stereo unspecified)
IC50 [6]: > 9.99 µM (inactive)

CCOC(=O)c1c(NC(=O)c2ccco2)n(C2CCCCC2)c2nc3ccccc3nc12
CC50 [7]: > 40 µM (active)
EC50 [8]: 2.62 µM (active)
IC50 [6]: 1.67 µM (active)
AC50 [9]: 229 µM (active)
IC50 [10]: > 50 µM (not active)

CCCCNc1c(-c2ccc(-c3ccc(C(C)=O)cc3)c(OC)c2)nc2cc(C)ccn12
IC50 [11]: 77.5 µM (inactive)

CC(=O)O[C@H]1C[C@@H]2OC3C=C(C)CCC3(C)[C@@]1(C)[C@@]21CO1 (stereo partly specified)
IC50 [12]: 49.8 µM (inactive)

CCOC(=O)N1CCN(C(=O)c2cc3c(s2)-c2ccccc2OC3)CC1
IC50 [11]: > 80 µM (inactive)

CN(CC(=O)Nc1cccc(F)c1)C(=O)c1ccccc1CCc1ccccc1
AC50 [4]: 15.3 µM (active)

Cc1ccc(Cn2c(C3CCCN3c3nc(-c4cc(Cl)c(N)c(Cl)c4)cs3)nc3cc(Cl)c(Cl)cc32)cc1 (stereo unspecified)
IC50 [13]: 26.4 µM (active)
IC50 [14]: 11.1 µM (active)

CN1C(=O)c2cc(NC(=O)c3ccc(C(F)(F)F)cc3)ccc2OC[C@@H]2O[C@H](CC(=O)NC3Cc4ccccc4C3)CC[C@H]21
AC50 [15]: 15.5 µM (active)
AbsAC35 [16]: 229.94 µM
AbsAC35 [17]: 100.28 µM
AbsAC35 [18]: 52.78 µM

CC(=O)Nc1cccc(NC(=O)c2cccc(-c3ccc(O)cc3)c2)c1
IC50 [19]: 46.4 µM (active)
CC50 [20]: 100 µM (active)

COc1cc(C2c3cc4c(cc3C(O)C3COC(=O)C23)OCO4)cc(OC)c1OC (stereo unspecified)
IC50 [21]: > 67.5 µM (inactive)
IC50 [22]: > 67.5 µM (inactive)

Cc1cccc(-n2c(S)nnc2-c2ccoc2C)c1
IC50 [1]: > 122 µM (inactive)

O=C(CCN1C(=O)c2cccnc2C1=O)NC1CCCCCC1
AC50 [23]: 76.9 µM (active)

COc1ccccc1CNC(=O)C[C@@H]1C[C@H]2c3cc(NC(=O)c4ccc5c(c4)OCO5)ccc3O[C@H]2[C@H](CO)O1
AbsAC35 [16]: 232.4 µM
AbsAC35 [17]: 37.67 µM
AbsAC35 [18]: 179.84 µM

COc1ccc(-c2cn3cc(C)ccc3n2)cc1F
AC50 [24]: 30.9 µM (active)
IC50 [21]: > 67.6 µM (inactive)
AC50 [25]: 3 µM (active)
IC50 [22]: > 67.6 µM (inactive)
AC50 [26]: 2.87 µM (active)

O=C(CSc1cccc2cccnc12)N/N=C/c1ccncc1
AC50 [23]: 110 µM (active)
